{"source": "paper PMC7926980", "about": "“The Antiproliferative and Apoptotic Effect of a Novel Synthesized S-Triazine Dipeptide Series, and Toxicity Screening in Zebrafish Embryos” (Molecules, 2021)", "key": {"HCT-116 cells": {"tested_on": "HCT-116 cells", "test": "MTT cell viability assay, HCT-116", "assay_type": "cell-based", "conditions": "Homo sapiens, 72 h treatment", "protocol": "(§1) The antiproliferative activity of the synthesized compounds was evaluated by the 3-(4,5-dimethylthiazol-2-yl)-2,5-diphenyl tetrazolium bromide (MTT) cell viability assay. Two types of breast cancer cell lines—namely MCF-7, which has estrogen and progesterone receptors, and MDA-MB-231, which is triple negative—were used, in addition to a colon cancer cell line (HCT-116).\n(§2) The target products 3a–o were evaluated for their antiproliferative activity using the MTT viability assay of the MCF-7, MDA-MB-231 and HCT-116 cell lines (in triplicate) on at least three independent occasions for the determination of the reported mean values.\n(§3) The three human tumor cell lines MCF-7, MDA-MB-231 and HCT-116 were cultured in Dulbecco’s Modified Eagle’s Medium (DMEM) with 10% fetal bovine serum, 2 mM L-glutamine and 100 µg/mL penicillin/streptomycin. The cells were maintained at 37 °C in 5% CO2 in a humidified incubator. All of the cells were sub-cultured 3 times/week by trypsinization using TrypLE Express (1×).\n(§4) In order to calculate the relative IC50 values, the antiproliferative effect of compounds 3a–o was tested in three cancer cell lines (MCF-7, MDA-MB-231, HCT-116) and normal epithelial embryonic kidney cells (HEK-293) using the MTT viability assay. The cells were seeded in 96-well plates at a density of 10 × 10^3 cells/mL, in a total volume of 200 µL per well. In total, 0.1% DMSO was used as a vehicle control. […] The culture medium was then removed, and the cells were washed with phosphate-buffered saline (PBS), and 100 µL MTT was added (for a final concentration of 5 mg/mL MTT). The cells were incubated for 4 h in darkness at 37 °C. Next, 200 µL DMSO was added to each well, and the cells were maintained at room temperature in darkness for 20 min. The absorbance was detected with a microplate reader at 570 nm. The results were expressed as a percentage of viability relative to the vehicle control (100%). The dose-response curves were plotted, and the IC50 values were obtained using Prism software (GraphPad Software, Inc., La Jolla, CA, USA). All of the experiments were repeated in three independent experiments."}, "[1]": {"test": "Zebrafish embryo mortality/toxicity", "assay_type": "in vivo", "conditions": "wild-type, in vivo; zebrafish embryos, overnight exposure, 0.5 to 1000 µM; mean of three biological replicates ± standard deviation", "protocol": "(§5) The zebrafish embryos were obtained by natural pairwise breeding, and were treated essentially as described previously.\n(§6) The compounds were dissolved in dimethylsulfoxide (DMSO) in order to prepare a stock concentration of 10 mM. The embryos treated with 0.10% DMSO (v/v) served as the negative controls.\n(§7) The fish were kept following the national and international guidelines for the care and use of laboratory animals. The fertilized eggs were obtained by the natural pairwise breeding of adult fish. The approval of the Ethics Committee for the use and care of laboratory animals was not needed, as zebrafish larvae less than 5 days post fertilization were used.\n(§8) A stock solution of 50 mM was prepared by dissolving the compounds in dimethyl sulfoxide (DMSO). At least 30 fertilized eggs were sorted and placed in 60-mm sterile glass Petri dishes. A serial dilution of the compounds was prepared by adding the required amount of the compound directly into 5 mL water, and the zebrafish embryos were then exposed to serial dilutions (0.5 to 1000 µM) of each compound overnight. The number of dead and living embryos were counted after the overnight exposure."}, "zebrafish embryos": {"tested_on": "zebrafish embryos", "test": "Zebrafish embryo mortality/toxicity", "assay_type": "in vivo", "conditions": "maximum concentration tested 1 mM, versus DMSO control", "protocol": "as §5, §6, §7, §8"}, "HEK-293 cells": {"tested_on": "HEK-293 cells", "test": "MTT cell viability assay, non-tumorigenic HEK-293", "assay_type": "cell-based", "conditions": "Homo sapiens, HEK293, 72 h, non-tumorigenic cell line", "protocol": "Additional assays were run with 3a, the most promising compound. Its toxicity was evaluated using HEK-293 (normal human embryonic kidney), which is a non-tumorigenic cell line.\nIn order to calculate the relative IC50 values, the antiproliferative effect of compounds 3a–o was tested in three cancer cell lines (MCF-7, MDA-MB-231, HCT-116) and normal epithelial embryonic kidney cells (HEK-293) using the MTT viability assay. The cells were seeded in 96-well plates at a density of 10 × 10^3 cells/mL, in a total volume of 200 µL per well. In total, 0.1% DMSO was used as a vehicle control. After 24 h, the cells were treated with 2 µL of the test compound, which had been pre-prepared as a stock solution to furnish the concentration range of the study (0.01–100 µM), and re-incubated for 72 h. The culture medium was then removed, and the cells were washed with phosphate-buffered saline (PBS), and 100 µL MTT was added (for a final concentration of 5 mg/mL MTT). The cells were incubated for 4 h in darkness at 37 °C. Next, 200 µL DMSO was added to each well, and the cells were maintained at room temperature in darkness for 20 min. The absorbance was detected with a microplate reader at 570 nm. The results were expressed as a percentage of viability relative to the vehicle control (100%). […]"}, "MDA-MB-231 cells": {"tested_on": "MDA-MB-231 cells", "test": "MTT cell viability assay, MDA-MB-231", "assay_type": "cell-based", "conditions": "Homo sapiens, 72 h treatment", "protocol": "as §1, §2, §3, §4"}}, "note": "“Also recorded” adds a separate entry of the source."}
{"smiles": "COC(=O)CNC(=O)CNc1nc(Nc2ccccc2)nc(N2CCOCC2)n1", "note": "[Compound 3a, Methyl (4-morpholino-6-(phenylamino)-1,3,5-triazin-2-yl) glycylglycinate]", "values": [{"measurement": "IC50", "setting": "HCT-116 cells", "result": "17.9 ± 3.74", "unit": "µM"}, {"measurement": "LC50", "setting": "[1]", "result": "> 1000", "unit": "µM"}, {"measurement": "toxicity / mortality in zebrafish embryos", "setting": "zebrafish embryos", "result": "did not show any toxicity; also recorded: same mortality ratio as the control"}, {"measurement": "IC50", "setting": "HEK-293 cells", "result": "> 50", "unit": "µM"}, {"measurement": "IC50", "setting": "MDA-MB-231 cells", "result": "9.36 ± 1.15", "unit": "µM"}]}
